Measurements as given in patent US5276217A, “Cyclic anti-tumor promoter compounds, compositions and methods for production and use” (University of Hawaii, priority 1992, dated 1994).
Read-outs that look alike come from different tables or passages of the source.

What was measured:
tumor promotion = settings: prior art, in words, cited from earlier work
ras farnesyl transferase = molecular target: T1, ras farnesyl transferase (Bos taurus, UniProt P29702+P49355); assay: inhibition of the farnesylation of ras-p21 by ras farnesyl transferase (3H-farnesylpyrophosphate incorporation); format: biochemical, bovine
T1 construct: ras farnesyl transferase obtained from bovine brain; from tissue; host or cells: bovine brain
Experimental: This inhibitory activity is assayed using partially purified ras farnesyl transferase obtained from bovine brain by DEA gel filtration (J. Biol. Chem., 260, 15575, 1991) purified to display a single band in gel electrophoresis. […] This mixture is incubated at 37° C. for 20 minutes. The solutes are then precipitated with trichloroacetic acid (TCA) and the precipitate is filtered on a glass filter. The amount of farnesyl incorporated into the ras-p21 is then determined by liquid scintillation.

Structure (SMILES): CCCCC[C@H](O)CC(=O)CCc1ccc(O)c(OC)c1 [Gingerol, (S)-5-Hydroxy-1-(4-hydroxy-3-methoxyphenyl)-3-decanone]
- anti-tumor promoter activity (tumor promotion): reported to be an inhibitor of tumor promotion

Structure (SMILES): C=C(C)C1CC=C(C)CC1 (stereo not shown) [Limonene, 1-methyl-4-(methylethenyl) cylcohexene]
- anti-tumor promoter activity (tumor promotion): has not been shown to have substantial anti-tumor promoter activity

Structure (SMILES): CC1=CC=C(C(C)C)C(O)CC(C)=CCCC(C)=CCC1 (stereo not shown) [Sarcophytol A]
- anti-tumor promoter activity (tumor promotion): have been shown to have anti-tumor promoter activity
- anti-tumor promoter activity (tumor promotion; listed as sarcophytol A): displays antitumor promoting properties
- IC50 (ras farnesyl transferase; 37° C., 20 minutes, pH 7.5, 0.67 μM 3H-Farnesylpyrophosphate, 4 μg ras-p21): > 1000 µM
- inhibition of the farnesylation of ras-p21, in words (ras farnesyl transferase; conclusion from Example 7): does not appear to be an effective inhibitor

Structure (SMILES): C/C1=C\C=C(\C(C)C)[C@@H](O)[C@H](O)/C(C)=C/CC/C(C)=C/CC1 [Sarcophytol B]
- anti-tumor promoter activity (tumor promotion): have been shown to have anti-tumor promoter activity
